PMC7664879, “Discovery of 12O—A Novel Oral Multi-Kinase Inhibitor for the Treatment of Solid Tumor” (Molecules, 2020)

How the values were obtained:
H460 = test: CCK-8 cell growth inhibition, H460; format: cell-based, human; conditions: Homo sapiens, NCI-H460; lung cancer; CCK-8 assay, 72-h incubation
Procedure: (§1) In vitro anticancer screening of all newly synthesized compounds towards human solid tumor cells, cervical (SiHa) and ovarian (SKOV3) cancer cell lines, was carried out by standard CCK-8 assay with cisplatin as the positive control, as cisplatin is one of the most used chemotherapy drugs. […] The compound was further evaluated in a dose response study against a panel of solid tumor cells, including cervical cancer cell lines (SiHa and HeLa), ovarian cancer cell lines (SKOV3 and OVCAR-5), breast cancer cell lines (4T1 and MCF-7), lung cancer cell lines (A549 and H460) to test cytotoxic activity. The IC50 values were summarized in Table 2, including the cytotoxic activity of the cisplatin used as reference compound.
(§2) The viability of cells as determined using the CCK8 assay method. Cells were seeded (2000–3000 cells per well) in 96-well plates. After incubation for 24 h in serum-containing media, the cells were treated with drugs at different concentrations diluted with culture medium for 72 h at 37 °C with a 5% CO2 atmosphere. […] Finally, absorbance values of test wells (AS), control wells (AC) and blank wells (Ab) at 450 nm were read using the Microplate Reader (Promega, WI). Inhibition ratios were calculated as follows: [(AC − AS)/ (AC−Ab)] × 100%. IC50 values were calculated using GraphPad software.

A549 = test: CCK-8 cell growth inhibition, A549; format: cell-based, human; conditions: Homo sapiens, A549; lung cancer; CCK-8 assay, 72-h incubation
Procedure: as §1, §2

SiHa xenograft = SiHa xenograft mouse model, oral dosing; format: in vivo; conditions: for Tumor growth inhibition (TGI): SiHa xenograft mice, every day
Procedure: Based on a desirable set of in vitro properties, 12O was finally selected for further in vivo evaluation. We proceeded to test the antitumor efficacy of 12O in SiHa xenograft mice. Animals were orally given three doses (5, 10, and 20 mg Kg^−1) of 12O, one dose (20 mg Kg^−1) of cisplatin (positive control), or vehicle (control) every day. […] Of note, In Figure 5c, an obvious decrease in tumor size was also observed at the end of observation. The average tumor weight (Figure 5d) of the 12O-treated group was less than that of cisplatin. HE staining was further performed to identify the efficacy of 12O (Figure 5e). […] Additional kinase activities of 12O intimately associated with the growth, survival, and metastasis in tumor cells, may contribute to the antitumor activity, but may also cause side effects. Multi-target kinase inhibitor extensively used in clinic cancer therapy, while hampered by associated adverse reactions and side-effect. Thus, further evidence is needed. An in-depth study of compound 12O is ongoing in our laboratory and will be reported in due course.
All animal studies were conducted under the approval of the Experimental Animal Management Committee of Nankai University (No. NKUEC20190228). Six- to eight-week-old female BALB/c nude mice were purchased from Beijing HFK Bioscience Company. Mice were fed in an SPF-level laboratory animal room. The mice were kept in independent ventilation cages with autoclaved corncobs at the bottom of the cage as bedding. The dimensions of the cages were 390 × 180 × 180 mm. Environmental factors: Average air temperature ranged from 20 to 26 °C with average relative air humidity ranging from 40 to 70%. Noise was below 60 decibels. Ventilation times were more than 15 times/hour. Air velocity was 0.1~0.2m/s. The ammonia concentration was below 14/(mg/m³). Working illumination was 150~300LX and animal illumination was 15~20LX. The nutritional components of mouse food include: water content: ≤10%, crude protein: ≥18%, crude fat: ≥4%, crude fiber: ≥5%, minerals: ≥4%, calcium: 1.0–1.8%, Phosphorus: 0.6-1.2%. The water that mice drink is sterilized by the animal drinking system.
Cells SiHa were harvested during the exponential-growth phase, washed 3 times with serum-free medium, followed by resuspension at a concentration of 2 × 10^6 per mL. A total of 100 μL of cell suspension was injected into SCID mice subcutaneously. After the tumors had grown to 100−150 mm^3, all the mice were randomized into 5 groups (5 mice for each group, 25 mice total). The mice were treated daily via oral gavage administration with 12O (5, 10, or 20 mg kg^−1 d^−1), cisplatin (20 mg kg^−1 d^−1), or vehicle. […] Mice were monitored for side effects every day. Body weights and tumor sizes were determined every other day and volume was also observed. At the end-point of the study, all mice had survived. Mice were euthanized and the subcutaneous tumor tissues were stripped and collected. Tumor measurements were calculated using a digital vernier caliper, and the volumes were determined using the following calculation: (short^2) × long × 0.5. Inhibition rate of tumor growth was calculated using the following formula: 100 × {1 − [(tumor volume final-tumor volume initial) for 12O-treated group]/ [(tumor volume final-tumor volume initial) for the vehicle-treated group]} [23].

CDK1/cyclinB(h) = molecular target: T1, CDK1/cyclinB(h) (Homo sapiens, UniProt P06493); test: Kinase inhibition assay (Eurofins KinaseProfiler); format: biochemical; conditions: ATP at Km
T1 construct: purchased Eurofins (KinaseProfiler service)
Procedure: (§3) Kinase inhibition profiles were determined using KinaseProfiler services provided by Eurofins, and ATP concentrations used are the Km of corresponding kinases.
(§4) CDK1/cyclinB (h) (CDK2/cyclinA (h), CDK3/cyclinE (h), CDK4/CyclinD(h), CDK5/p25 (h), CDK6/cyclinD3 (h)) were incubated with 8 mM MOPS pH 7.0, 0.2 mM EDTA, 0.1 mg/mL histone H1, 10 mM MgAcetate and [gamma-33P]-ATP (specific activity and concentration as required).
(§5) All the reactions above were initiated by the addition of the Mg/ATP mix. After incubation for 40 min at room temperature, the reaction was stopped by the addition of phosphoric acid to a concentration of 0.5%. An amount of 10 µL of the reaction was then spotted onto a P30 filtermat and washed four times for 4 min in 0.425% phosphoric acid and once in methanol prior to drying and scintillation counting.

CDK6/cyclinD3(h) = molecular target: T2, CDK6/cyclinD3(h) (Homo sapiens, UniProt Q00534); test: Kinase inhibition assay (Eurofins KinaseProfiler); format: biochemical; conditions: ATP at Km
T2 construct: purchased Eurofins (KinaseProfiler service)
Procedure: as §3, §4, §5

CDK5/p25(h) = molecular target: T3, CDK5/p25(h) (Homo sapiens, UniProt Q00535); test: Kinase inhibition assay (Eurofins KinaseProfiler); format: biochemical; conditions: ATP at Km
T3 construct: purchased Eurofins (KinaseProfiler service)
Procedure: as §3, §4, §5

CDK4/cyclinD(h) = molecular target: T4, CDK4/cyclinD(h) (Homo sapiens, UniProt P11802); test: Kinase inhibition assay (Eurofins KinaseProfiler); format: biochemical; conditions: ATP at Km
T4 construct: purchased Eurofins (KinaseProfiler service)
Procedure: as §3, §4, §5

CDK2/cyclinA(h) = molecular target: T5, CDK2/cyclinA(h) (Homo sapiens, UniProt P24941); test: Kinase inhibition assay (Eurofins KinaseProfiler); format: biochemical; conditions: ATP at Km
T5 construct: purchased Eurofins (KinaseProfiler service)
Procedure: as §3, §4, §5

CDK3/cyclinE(h) = molecular target: T6, CDK3/cyclinE(h) (Homo sapiens, UniProt Q00526); test: Kinase inhibition assay (Eurofins KinaseProfiler); format: biochemical; conditions: ATP at Km
T6 construct: purchased Eurofins (KinaseProfiler service)
Procedure: as §3, §4, §5

T1 sequence (P06493 whole entry): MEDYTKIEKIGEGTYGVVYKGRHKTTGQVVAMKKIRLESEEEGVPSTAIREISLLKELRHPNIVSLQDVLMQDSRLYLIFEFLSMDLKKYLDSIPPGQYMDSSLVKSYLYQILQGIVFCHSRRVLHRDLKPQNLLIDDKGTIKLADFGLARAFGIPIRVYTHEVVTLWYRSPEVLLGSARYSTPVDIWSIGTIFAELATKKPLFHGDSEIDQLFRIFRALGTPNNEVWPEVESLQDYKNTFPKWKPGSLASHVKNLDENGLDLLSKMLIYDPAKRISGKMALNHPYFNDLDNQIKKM
T1 sequence (P14635 whole entry partner): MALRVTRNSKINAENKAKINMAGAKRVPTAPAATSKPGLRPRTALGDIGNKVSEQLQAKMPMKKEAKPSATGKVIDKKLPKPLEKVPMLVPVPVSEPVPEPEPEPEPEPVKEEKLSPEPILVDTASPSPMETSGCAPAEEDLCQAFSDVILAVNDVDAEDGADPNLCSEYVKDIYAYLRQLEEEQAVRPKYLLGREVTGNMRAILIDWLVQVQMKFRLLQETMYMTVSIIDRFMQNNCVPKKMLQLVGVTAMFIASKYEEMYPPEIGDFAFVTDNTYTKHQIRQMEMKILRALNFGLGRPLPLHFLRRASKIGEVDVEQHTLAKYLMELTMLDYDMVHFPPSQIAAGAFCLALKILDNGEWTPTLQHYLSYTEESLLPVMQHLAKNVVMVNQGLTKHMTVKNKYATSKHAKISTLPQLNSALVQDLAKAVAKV
T4 sequence (P11802 whole entry): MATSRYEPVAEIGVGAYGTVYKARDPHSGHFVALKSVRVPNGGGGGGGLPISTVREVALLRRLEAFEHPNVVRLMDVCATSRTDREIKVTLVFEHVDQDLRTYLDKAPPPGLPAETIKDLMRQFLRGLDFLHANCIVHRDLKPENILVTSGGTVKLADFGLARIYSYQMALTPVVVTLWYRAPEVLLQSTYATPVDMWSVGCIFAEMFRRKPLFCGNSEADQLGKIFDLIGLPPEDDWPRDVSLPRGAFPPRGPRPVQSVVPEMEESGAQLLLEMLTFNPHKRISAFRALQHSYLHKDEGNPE
T4 sequence (P30281 whole entry partner): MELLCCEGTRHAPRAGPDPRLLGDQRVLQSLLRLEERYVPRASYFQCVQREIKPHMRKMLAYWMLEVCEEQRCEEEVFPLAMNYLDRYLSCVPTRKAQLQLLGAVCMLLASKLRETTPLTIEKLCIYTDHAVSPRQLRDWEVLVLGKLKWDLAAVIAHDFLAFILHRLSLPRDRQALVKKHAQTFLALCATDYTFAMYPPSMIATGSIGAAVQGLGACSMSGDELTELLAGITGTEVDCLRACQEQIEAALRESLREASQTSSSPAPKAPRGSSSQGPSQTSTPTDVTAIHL
T3 sequence (Q00535 whole entry): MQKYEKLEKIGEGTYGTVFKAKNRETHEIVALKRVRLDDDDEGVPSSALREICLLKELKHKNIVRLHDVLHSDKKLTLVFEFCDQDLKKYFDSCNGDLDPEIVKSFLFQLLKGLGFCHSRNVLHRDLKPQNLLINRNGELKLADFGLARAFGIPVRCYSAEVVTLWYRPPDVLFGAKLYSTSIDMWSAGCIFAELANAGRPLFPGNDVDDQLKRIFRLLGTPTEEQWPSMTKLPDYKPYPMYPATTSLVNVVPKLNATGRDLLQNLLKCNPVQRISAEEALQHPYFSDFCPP
T3 sequence (Q15078 99-307 partner limits assumed): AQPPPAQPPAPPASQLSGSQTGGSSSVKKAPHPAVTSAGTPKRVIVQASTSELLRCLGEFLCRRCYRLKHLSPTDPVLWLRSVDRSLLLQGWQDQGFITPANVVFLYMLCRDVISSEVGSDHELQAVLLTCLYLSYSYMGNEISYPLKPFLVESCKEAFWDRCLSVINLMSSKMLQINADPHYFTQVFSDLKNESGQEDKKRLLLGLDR
T2 sequence (Q00534 whole entry): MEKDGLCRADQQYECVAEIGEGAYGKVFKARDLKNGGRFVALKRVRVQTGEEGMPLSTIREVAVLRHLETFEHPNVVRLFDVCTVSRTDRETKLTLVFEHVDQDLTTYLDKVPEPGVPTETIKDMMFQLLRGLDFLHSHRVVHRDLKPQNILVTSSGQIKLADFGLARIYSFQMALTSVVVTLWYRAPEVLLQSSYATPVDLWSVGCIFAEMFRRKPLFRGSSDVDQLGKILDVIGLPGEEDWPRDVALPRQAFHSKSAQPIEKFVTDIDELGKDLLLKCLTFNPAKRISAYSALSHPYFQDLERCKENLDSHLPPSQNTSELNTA
T2 sequence (P30281 whole entry partner): as the sequence (P30281 whole entry partner) above
T6 sequence (Q00526 whole entry): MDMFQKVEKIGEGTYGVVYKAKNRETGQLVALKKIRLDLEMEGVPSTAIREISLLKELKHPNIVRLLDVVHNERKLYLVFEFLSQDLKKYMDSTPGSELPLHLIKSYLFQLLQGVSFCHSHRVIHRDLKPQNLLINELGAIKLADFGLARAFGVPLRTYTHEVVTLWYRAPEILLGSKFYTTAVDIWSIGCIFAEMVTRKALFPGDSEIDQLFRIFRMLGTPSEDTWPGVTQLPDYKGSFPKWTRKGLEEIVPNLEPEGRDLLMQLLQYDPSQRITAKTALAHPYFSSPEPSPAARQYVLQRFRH
T6 sequence (P24864 whole entry partner): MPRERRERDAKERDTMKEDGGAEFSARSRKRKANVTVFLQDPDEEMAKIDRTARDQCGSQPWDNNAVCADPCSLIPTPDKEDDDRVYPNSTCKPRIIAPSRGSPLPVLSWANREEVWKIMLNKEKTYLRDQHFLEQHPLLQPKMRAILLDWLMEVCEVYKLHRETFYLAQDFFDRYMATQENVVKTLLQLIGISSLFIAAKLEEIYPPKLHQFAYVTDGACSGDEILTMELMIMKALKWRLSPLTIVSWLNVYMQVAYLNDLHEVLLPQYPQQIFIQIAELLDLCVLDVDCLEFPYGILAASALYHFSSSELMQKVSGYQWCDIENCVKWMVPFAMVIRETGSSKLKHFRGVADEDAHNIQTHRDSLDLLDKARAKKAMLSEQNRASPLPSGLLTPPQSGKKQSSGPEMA

CC(C)n1nnc2ccc(-c3nc(Nc4ccc(CNC(=O)C5(C(=O)Nc6ccccc6)CC5)cc4)ncc3F)cc21 [12O]
IC50 (H460): 41 nM | IC50 (A549): 35 nM | Tumor growth inhibition (TGI) (SiHa xenograft; 5 mg/kg oral): 51.25% | Tumor growth inhibition (TGI) (SiHa xenograft; 10 mg/kg oral): 65.52% | Tumor growth inhibition (TGI) (SiHa xenograft; 20 mg/kg oral): 79.29% | toxicity in treated mice (body weight) (SiHa xenograft; SiHa xenograft mice, 5, 10 and 20 mg/kg oral daily): without obvious toxicity | inhibition at 1 µM (CDK1/cyclinB(h); 1 µM): 98% | IC50 (CDK1/cyclinB(h)): 10 nM | inhibition at 1 µM (CDK6/cyclinD3(h)): 74% | inhibition at 1 µM (CDK5/p25(h); 1 µM): 99% | IC50 (CDK5/p25(h)): 6 nM | inhibition at 1 µM (CDK4/cyclinD(h); 1 µM): 91% | IC50 (CDK4/cyclinD(h)): 157 nM | inhibition at 1 µM (CDK2/cyclinA(h); 1 µM): 99% | IC50 (CDK2/cyclinA(h)): 5 nM | inhibition at 1 µM (CDK3/cyclinE(h)): 86%
